According to patent US3955959A, “Herbicide for use in transplanted rice” (priority 1974, dated 1976):
Values after ≈ are worked out from the molar mass of the structure shown.

Tests used:
[1] = test system: Echinochloa crusgalli and Monochoria vaginalis; experiment: Example 2 field test, overall; assay type: in vivo
Text: Rice seedlings (ordinary) of Tainan No. 5 variety (japonica) were transplanted at 19 days of growth. Granular formulations of Herbicides A and B were applied at the 1 leaf stage of grass weed (4 DAT) and 2.5 leaf stage of grass weed (10 DAT).

[2] = test system: Cc (Commelina communis); experiment: Example 7 greenhouse preemergence activity; assay type: in vivo
Method: In a further comparative study of the preemergence activity of Herbicides A and B, a variety of weeds and upland direct-seeded rice were tested under greenhouse conditions. The present invention is not concerned with the use of Herbicide A in direct-seeded rice. The primary purpose of the experimental work in this example is to compare relative herbicidal activity of Herbicides A and B against the weeds shown in Table 7; most of these weeds were not available for tests with transplanted rice. Although the relative selectivity of these herbicides in upland rice is also evident, that aspect of the tests is more or less incidental to the purpose of this example.
In this example, rice seeds and seeds of the weeds shown in Table 7 were sown in Ray silt loam soil at a depth of 0.5 inch (1.27 cm) in containers for the soil in a greenhouse. Herbicides A and B were applied to the surface of the soil at a spray volume equivalent to 20 gals/acre (187.1 liters/hectare), followed by 0.5 in (1.27 cm) of overhead irrigation. Temperature and relative humidity in the greenhouse were on the order of 85°F (29°C) and 75%, respectively. Observations were made at 21-28 days after seeding.
In Table 7 are shown the average rates of herbicide required to cause a growth reduction of 85% of the weeds ("GR85 "), and the average rate of herbicide required to cause a growth reduction of 15% ("GR15 ") of the rice plants (Oryza sativa, "Os", variety Bluebelle).

[3] = test system: Dapog transplanted rice; experiment: Example 3 field test, crop injury; conditions: for Crop Injury (%): obs. 42 DAT
Method: (§1) In the tests described in the tables below, the herbicides were formulated and used in granular form in conventional manner. […] The commercial herbicide used was a granular product having 5% active ingredient.
(§2) In the field tests of the herbicide of this invention with transplanted rice, the rice seedlings were grown in conventional manner, by seeding the rice in a typical seedbed of sandy loam to clay soil of the country wherein the test was conducted. For laboratory and greenhouse work the seedlings were obtained by seeding rice in a mixture of soil, e.g., Ray silt loam, and peat in wood flats. For purposes of testing the herbicides on younger rice seedlings (infant or Dapog) the rice was usually allowed to grow for 6-15 days before lifting for transplanting. Older (ordinary) rice plants were usually grown for a period of about 2-3 weeks, or as much as about 7 weeks before lifting. Since the period of growth is dependent upon climatic conditions, a better measure of when to transplant the rice seedling is the leaf stage of growth; for infant or Dapog rice the seedling is lifted at the 1.5-2 leaf stage of growth, and for ordinary seedlings at the 2.5-5 leaf stage. The seedlings were then transplanted to the test plots for evaluation of the herbicide for injury against weed species present with the transplanted rice. The herbicides were then applied to the growth medium of the weeds and transplant rice, either preemergent or postemergent with respect to the weeds and postemergent with respect to the transplanted rice. Application times are designated in the tables as "DAT", meaning "days after transplant". Application rates given in the tables refer to the amount of active ingredient used.
Eleven (11) day-old Dapog seedlings were transplanted and treated at 5 DAT and 14 DAT with Herbicides A and B. The plots were overseeded with Echinochloa crusgalli seeds at 2 kgs/ha prior to transplanting. Treatments were replicated four times.

[4] = test system: weeds Ec, Ann. Cyp, Mv, Obw, Ea; experiment: Example 5 field test, average weed control, JAAPR, Japan
Method: as §1, §2
The rice seedlings were grown to the 1.7 leaf stage for infant seedlings and to the 5.5 leaf stage for ordinary seedlings. Two days after puddling the soil in which the seedlings were to be transplanted, both infant and ordinary seedlings were transplanted into plots 8.5 m^2.
The weed symbol "Obw" represents "other broadleaf weeds" of unspecified identity. Results presented in Table 5 represent the average of 2 replications.

[5] = test system: Sa (Sagittaria aginashi); experiment: Other tests, perennial control; assay type: in vivo
[6] = test system: Alisma canaliculatum, Aneilema japonica, Monochoria vaginalis, Commelina communis; experiment: Weeds effectively treated to date: monocotyledonous broadleaf weeds; assay type: in vivo
[7] = Example 10 fish toxicity, Japanese protocol; assay type: in vivo, carp; conditions: carp, in vivo, read-out: Medium Lethal Concentration
Method: In view of the importance of fish toxicological considerations, tests were conducted, using carp according to the Japanese protocol, to compare toxicity data for Herbicides A and B; results of those tests are shown in Table 10.

[8] = test system: pigweed, annual morning glory, smartweed, cocklebur, Italian ryegrass, crop rye, sorghum, quack grass and nutsedge; experiment: Example 9 soil life bioassay, greenhouse; assay type: in vivo; conditions: for Soil Longevity: 5 lbs/Ac (5.605 kg/ha), Ray silt loam
Method: In this example, additional tests were run to compare the relative soil life of Herbicides A and B under greenhouse conditions.
In the soil life tests, a standardized procedure involving a series of bioassay periods, or cycles, was used. In the procedure, an arbitrary, selected mixture of four grasses, four broadleaf weeds and a sedge were seeded into Ray silt loam soil previously prepared and treated with the herbicide under test and periodically watered by sub-irrigation. After a six-week bioassay period, (i.e., the first cycle), the plants were evaluated visually for herbicidal activity. That soil in which at least 75% of three or more grass and/or broadleaf species or of the sedge alone were controlled at the end of the cycle, was advanced to a second cycle, or six-week bioassay period. The second cycle involved the same procedure as the first cycle, except that additionally, the equivalent of 50 lbs/ac (56.05 Kgs/ha) of nitrogen was mixed into the cover layer of the soil which was reseeded with the mixture of plants mentioned earlier. The plants were evaluated for herbicidal activity at the end of this six-week period and, again, the soil in which at least 75% of the grasses or broadleaf species or of the sedge alone were controlled was advanced to a third cycle. The foregoing procedure was repeated until herbicidal activity fell below that required for initiation of a new cycle.
For purposes of the soil life tests, the following spectrum of plants were used as indicators: pigweed, annual morning glory, smartweed, cocklebur, Italian ryegrass, crop rye, sorghum, quack grass and nutsedge.

[9] = test system: weeds in transplanted rice; experiment: Field tests / general herbicidal activity in transplanted rice; assay type: in vivo; conditions: for latest/optimum application stage of weeds: field tests
[10] = test system: Brachiaria platyphylla, Digitaria spp, Echinochloa spp, Eleusine indica, Leptochloa spp and Setaria spp; experiment: Weeds effectively treated to date: grasses; assay type: in vivo

CCCCOCN(C(=O)CCl)c1c(C)cccc1C(C)(C)C [Herbicide A, n-(butoxymethyl)-6'-tert-butyl-2-chloro-o-acetotoluidide]
period of application vs Herbicide B ([1]; Example 2): could be applied over a longer period of time
fold more active than Herbicide B ([1]; control of Echinochloa crusgalli and Monochoria vaginalis): 3-6 fold
resistance of Cc [2]: resistant
Crop Injury (%) ([3]; 5 DAT, 1.0 kg/ha): 40%
Crop Injury (%) ([3]; 5 DAT, 2.0 kg/ha): 50%
Crop Injury (%) ([3]; 5 DAT, .25 kg/ha): 0%
Crop Injury (%) ([3]; 5 DAT, .5 kg/ha): 0%
Crop Injury (%) ([3]; 14 DAT, 1.0 kg/ha): 0%
Crop Injury (%) ([3]; 14 DAT, 2.0 kg/ha): 80%
Crop Injury (%) ([3]; 14 DAT, .25 kg/ha): 0%
Crop Injury (%) ([3]; 14 DAT, .5 kg/ha): 0%
rice injury in words ([3]; higher rates, 5 DAT): considerable rice injury
weed control vs Herbicide B at 1.5 kg/ha 7 DAT ([4]; 0.25 kg/ha, 2 DAT, Ec, Ann. Cyp, Obw and average, ordinary and infant): equal to or superior
% Weed Control, Avg. ([4]; 1.0 kg/ha, 15 DAT, infant seedlings): 90%
% Weed Control, Avg. ([4]; 1.0 kg/ha, 15 DAT, ordinary seedlings): 90%
% Weed Control, Avg. ([4]; .25 kg/ha, 2 DAT, infant seedlings): 93%
% Weed Control, Avg. ([4]; .25 kg/ha, 2 DAT, ordinary seedlings): 92%
% Weed Control, Avg. ([4]; .5 kg/ha, 7 DAT, infant seedlings): 81%
% Weed Control, Avg. ([4]; .5 kg/ha, 7 DAT, ordinary seedlings): 84%
fold more active than Herbicide B ([4]; average weed control, 7 DAT): at least 3 fold
activity against Sa [5]: generally weak
effectively treated monocotyledonous broadleaf weeds [6]: effectively treated
LC50 at 48 h [7]: 1.8 mg/L (≈ 5.52 µM)
LC50 at 96 h [7]: 1.4 mg/L (≈ 4.3 µM)
Soil Longevity [8]: 29 Weeks
residual preemergence activity longer than Herbicide B ([8]; equal rates, 5 lbs/Ac): about 50%
latest/optimum application stage of weeds [9]: 2-2.5 leaf stage
control of undesirable vegetation ([9]; monocotyledons and dicotyledons): fair to excellent control
herbicidal activity in transplanted rice ([9]; presence of transplanted rice): superior herbicidal activity
selectivity vs Herbicide B in transplant rice ([9]; transplant rice cultures): more selective
effectively treated grasses [10]: effectively treated

CCCCOCN(C(=O)CCl)c1c(CC)cccc1CC [Herbicide B, n-(butoxymethyl)-2',6'-diethyl-2-chloroacetanilide, reference compound]
Crop Injury (%) ([3]; 5 DAT, 1.0 kg/ha): 0%
Crop Injury (%) ([3]; 5 DAT, 1.5 kg/ha): 0%
Crop Injury (%) ([3]; 5 DAT, 3.0 kg/ha): 0%
Crop Injury (%) ([3]; 14 DAT, 1.0 kg/ha): 0%
Crop Injury (%) ([3]; 14 DAT, 1.5 kg/ha): 0%
Crop Injury (%) ([3]; 14 DAT, 3.0 kg/ha): 0%
% Weed Control, Avg. ([4]; 1.5 kg/ha, 7 DAT, infant seedlings): 93%
% Weed Control, Avg. ([4]; 1.5 kg/ha, 7 DAT, ordinary seedlings): 86%
LC50 at 48 h [7]: 1 mg/L (≈ 3.21 µM)
LC50 at 96 h [7]: 0.76 mg/L (≈ 2.44 µM)
Soil Longevity [8]: 20 Weeks
latest/optimum application stage of weeds [9]: 1 leaf stage
